Results published in ChEMBL document CHEMBL4145602, “Cyclic Peptidic Mimetics of Apollo Peptides Targeting Telomeric Repeat Binding Factor 2 (TRF2) and Apollo Interaction” (ACS Med Chem Lett, 2018).
Square brackets hold non-standard residues; d marks the D form. Peptide text beside a SMILES is read from it. Phe(4-NH2) = Nc1ccc(C[C@H](N)C(=O)O)cc1; Cha = N[C@@H](CC1CCCCC1)C(=O)O; Chg = N[C@H](C(=O)O)C1CCCCC1; Nva = CCC[C@H](N)C(=O)O

Target: T1, Telomeric repeat-binding factor 2 (Homo sapiens, UniProt Q15554)
T1 sequence (Q15554 whole entry): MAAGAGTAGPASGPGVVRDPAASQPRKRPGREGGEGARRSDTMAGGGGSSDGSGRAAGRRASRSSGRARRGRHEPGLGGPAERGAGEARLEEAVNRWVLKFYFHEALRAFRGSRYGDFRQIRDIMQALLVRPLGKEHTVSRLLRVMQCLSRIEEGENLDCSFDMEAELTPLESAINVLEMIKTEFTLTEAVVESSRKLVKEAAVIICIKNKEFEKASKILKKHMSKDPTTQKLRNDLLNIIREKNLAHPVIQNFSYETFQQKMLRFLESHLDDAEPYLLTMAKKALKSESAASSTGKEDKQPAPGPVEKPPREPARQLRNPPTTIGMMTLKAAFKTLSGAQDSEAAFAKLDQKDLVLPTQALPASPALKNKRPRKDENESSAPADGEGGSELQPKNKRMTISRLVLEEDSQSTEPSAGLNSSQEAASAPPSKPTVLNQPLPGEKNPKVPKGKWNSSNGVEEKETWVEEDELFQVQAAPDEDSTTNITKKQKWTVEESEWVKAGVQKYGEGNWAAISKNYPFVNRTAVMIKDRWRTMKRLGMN
Assay: Displacement of 5-((2R,6S,9S,12S,15S,18S,21S,24S)-3-((S)-2-((S)-1-amino-3-methyl-1-oxobutan-2-ylcarbamoyl)pyrrolidine-1-carbonyl)-15-(4-aminobutyl)-2-hydroxy-12-(4-hydroxybenzyl)-6,9,18,24-tetraisobutyl-21-methyl-5,8,11,14,17,20,23,26,29-nonaoxo-4,7,10,13,16,19,22,25,28-nonaazatetratriacontan-34-ylcarbamoyl)-2-(6-hydroxy-3-oxo-3H-xanthen-9-yl)benzoic acid from TRF2 TRFH domain (unknown origin) after 30 mins by fluorescence polarization assay

| Ki | SMILES |
| --- | --- |
| 11.2 µM | CC(C)C[C@@H]1NC(=O)[C@@H](NC(=O)[C@H](Cc2ccccc2)NC(=O)CCc2ccccc2)CCCCCCC[C@@H](C(=O)N(C)C)NC(=O)[C@@H]2CCCN2C(=O)[C@H](C)NC1=O |
| 1.89 µM | CC(=O)N[C@@H](CC(C)C)C(=O)N[C@@H](C)C(=O)N[C@@H](CC(C)C)C(=O)N[C@@H](CCCCN)C(=O)N[C@@H](Cc1ccc(O)cc1)C(=O)N[C@@H](CC(C)C)C(=O)N[C@@H](CC(C)C)C(=O)N[C@H](C(=O)N1CCC[C@H]1C(=O)O)[C@@H](C)O (Ac-LALKYLLTP-OH) |
| 115 µM | CC(C)C[C@@H]1NC(=O)[C@@H](N)CCCCCCC[C@@H](C(=O)N(C)C)NC(=O)[C@@H]2CCCN2C(=O)[C@H](C)NC1=O |
| 0.21 µM | CC(=O)N[C@@H](CC(C)C)C(=O)N[C@@H](C)C(=O)N[C@@H](CC(C)C)C(=O)N[C@@H](CCCCN)C(=O)N[C@@H](Cc1ccc(O)cc1)C(=O)N[C@@H](CC(C)C)C(=O)N[C@H](C(=O)N[C@H](C(=O)N1CCC[C@H]1C(=O)N[C@H](C(N)=O)C(C)C)[C@@H](C)O)C1CCCCC1 (Ac-LALKYL[Chg]TPV-NH2) |
| 461 µM | CC(=O)N[C@@H](CC(C)C)C(=O)N[C@@H](C)C(=O)N[C@@H](CC(C)C)C(=O)N[C@@H](CCCCN)C(=O)N[C@@H](Cc1ccc(O)cc1)C(=O)N[C@@H](CC(C)C)C(=O)O (Ac-LALKYL-OH) |
| 41.4 µM | CC(C)C[C@@H]1NC(=O)[C@@H](NC(=O)[C@@H](N)Cc2ccccc2)CCCCCCC[C@@H](C(=O)N(C)C)NC(=O)[C@@H]2CCCN2C(=O)[C@H](C)NC1=O |
| 0.38 µM | CC(C)C[C@H](NC(=O)CN)C(=O)N[C@@H](C)C(=O)N[C@@H](CC(C)C)C(=O)N[C@@H](CCCCN)C(=O)N[C@@H](Cc1ccc(O)cc1)C(=O)N[C@@H](CC(C)C)C(=O)N[C@@H](CC(C)C)C(=O)N[C@H](C(=O)N1CCC[C@H]1C(=O)N[C@H](C(=O)O)C(C)C)[C@@H](C)O (H-GLALKYLLTPV-OH) |
| 0.09 µM | CC(=O)N[C@@H](CC(C)C)C(=O)N[C@@H](C)C(=O)N[C@@H](CC(C)C)C(=O)N[C@@H](CCCCN)C(=O)N[C@@H](Cc1ccc(O)cc1)C(=O)N[C@H]1CCCCCCC[C@@H](C(=O)N(C)C)NC(=O)[C@@H]2CCCN2C(=O)[C@H](C)NC(=O)[C@H](CC(C)C)NC1=O |
| 1.4 µM | CC(=O)N[C@@H](CC(C)C)C(=O)N[C@@H](C)C(=O)N[C@@H](CC(C)C)C(=O)N[C@@H](CCCCN)C(=O)N[C@@H](Cc1ccc(O)cc1)C(=O)N[C@@H](CC(C)C)C(=O)N[C@@H](CC1CCCCC1)C(=O)N[C@H](C(=O)N1CCC[C@H]1C(=O)N[C@H](C(N)=O)C(C)C)[C@@H](C)O (Ac-LALKYL[Cha]TPV-NH2) |
| > 100 µM | CC(=O)N[C@@H](CC(C)C)C(=O)N[C@@H](C)C(=O)N[C@@H](CC(C)C)C(=O)N[C@@H](CCCCN)C(=O)N[C@@H](Cc1ccc(O)cc1)C(=O)N[C@@H](CC(C)C)C(=O)N[C@@H](C)C(=O)N[C@H](C(=O)N1CCC[C@H]1C(=O)N[C@H](C(N)=O)C(C)C)[C@@H](C)O (Ac-LALKYLATPV-NH2) |
| 26.3 µM | CC(=O)N[C@@H](CC(C)C)C(=O)N[C@@H](C)C(=O)N[C@@H](CC(C)C)C(=O)N[C@@H](CCCCN)C(=O)N[C@@H](Cc1ccc(O)cc1)C(=O)N[C@@H](CC(C)C)C(=O)N[C@@H](CC(C)C)C(=O)N[C@H](C(=O)O)[C@@H](C)O (Ac-LALKYLLT-OH) |

Further lines, the molecule ahead of its results:

| SMILES | Ki |
| --- | --- |
| CC(=O)N[C@@H](CC(C)C)C(=O)N[C@@H](C)C(=O)N[C@@H](CC(C)C)C(=O)N[C@@H](CCCCN)C(=O)N[C@@H](Cc1ccc(O)cc1)C(=O)N[C@@H](CC(C)C)C(=O)N[C@@H](Cc1ccccc1)C(=O)N[C@H](C(=O)N1CCC[C@H]1C(=O)N[C@H](C(N)=O)C(C)C)[C@@H](C)O (Ac-LALKYLFTPV-NH2) | 8.5 µM |
| CC(=O)N[C@@H](CC(C)C)C(=O)N[C@@H](C)C(=O)N[C@@H](CC(C)C)C(=O)N[C@@H](CCCCN)C(=O)N[C@@H](Cc1ccc(O)cc1)C(=O)N[C@@H](CC(C)C)C(=O)N[C@H](C(=O)N[C@H](C(=O)N1CCC[C@H]1C(=O)N[C@H](C(N)=O)C(C)C)[C@@H](C)O)C(C)C (Ac-LALKYLVTPV-NH2) | 61.2 µM |
| CC(=O)N[C@@H](CC(C)C)C(=O)N[C@@H](C)C(=O)N[C@@H](CC(C)C)C(=O)N[C@@H](C)C(=O)N[C@@H](Cc1ccc(O)cc1)C(=O)N[C@@H](CC(C)C)C(=O)N[C@@H](CC(C)C)C(=O)N[C@H](C(=O)N1CCC[C@H]1C(=O)N[C@H](C(N)=O)C(C)C)[C@@H](C)O (Ac-LALAYLLTPV-NH2) | 3.2 µM |
| CC(=O)N[C@@H](CC(C)C)C(=O)N[C@@H](C)C(=O)N[C@@H](CC(C)C)C(=O)N[C@@H](CCCCN)C(=O)N[C@@H](Cc1ccc(N)cc1)C(=O)N[C@@H](CC(C)C)C(=O)N[C@@H](CC(C)C)C(=O)N[C@H](C(=O)N1CCC[C@H]1C(=O)N[C@H](C(N)=O)C(C)C)[C@@H](C)O (Ac-LALK[Phe(4-NH2)]LLTPV-NH2) | 0.72 µM |
| CC(=O)N[C@@H](CC(C)C)C(=O)N[C@@H](C)C(=O)N[C@@H](CC(C)C)C(=O)N[C@@H](CCCCN)C(=O)N[C@@H](Cc1ccc(O)cc1)C(=O)N[C@@H](CC(C)C)C(=O)N[C@@H](CC(C)C)C(=O)N[C@H](C(=O)N1CCC[C@H]1C(=O)N[C@H](C(=O)O)C(C)C)[C@@H](C)O (Ac-LALKYLLTPV-OH) | 0.34 µM |
| CCC[C@H](NC(=O)[C@H](CC(C)C)NC(=O)[C@H](Cc1ccc(O)cc1)NC(=O)[C@H](CCCCN)NC(=O)[C@H](CC(C)C)NC(=O)[C@H](C)NC(=O)[C@H](CC(C)C)NC(C)=O)C(=O)N[C@H](C(=O)N1CCC[C@H]1C(=O)N[C@H](C(N)=O)C(C)C)[C@@H](C)O (Ac-LALKYL[Nva]TPV-NH2) | 4.7 µM |
| CC(C)C[C@H](NC(=O)[C@H](C)N)C(=O)N[C@@H](CCCCN)C(=O)N[C@@H](Cc1ccc(O)cc1)C(=O)N[C@@H](CC(C)C)C(=O)N[C@@H](CC(C)C)C(=O)N[C@H](C(=O)N1CCC[C@H]1C(=O)N[C@H](C(=O)O)C(C)C)[C@@H](C)O (H-ALKYLLTPV-OH) | 22.8 µM |
| CC[C@H](C)[C@H](NC(=O)[C@H](CC(C)C)NC(=O)[C@H](Cc1ccc(O)cc1)NC(=O)[C@H](CCCCN)NC(=O)[C@H](CC(C)C)NC(=O)[C@H](C)NC(=O)[C@H](CC(C)C)NC(C)=O)C(=O)N[C@H](C(=O)N1CCC[C@H]1C(=O)N[C@H](C(N)=O)C(C)C)[C@@H](C)O (Ac-LALKYLITPV-NH2) | 11.3 µM |
| CC(C)C[C@H](NC(=O)[C@H](C)NC(=O)[C@@H](N)CC(C)C)C(=O)N[C@@H](CCCCN)C(=O)N[C@@H](Cc1ccc(O)cc1)C(=O)N[C@@H](CC(C)C)C(=O)N[C@@H](CC(C)C)C(=O)N[C@H](C(=O)N1CCC[C@H]1C(=O)N[C@H](C(=O)O)C(C)C)[C@@H](C)O (H-LALKYLLTPV-OH) | 2.2 µM |
| CC(C)C[C@@H]1NC(=O)[C@@H](NC(=O)[C@@H](N)Cc2ccccc2)CCCCCC[C@@H](C(=O)N(C)C)NC(=O)[C@@H]2CCCN2C(=O)[C@H](C)NC1=O | 130 µM |
| CC(=O)N[C@@H](CC(C)C)C(=O)N[C@@H](C)C(=O)N[C@@H](CC(C)C)C(=O)N[C@@H](CCCCN)C(=O)N[C@@H](Cc1ccc(O)cc1)C(=O)N[C@@H](CC(C)C)C(=O)N[C@@H](CC(C)C)C(=O)O (Ac-LALKYLL-OH) | 98 µM |
| CC(=O)N[C@@H](CC(C)C)C(=O)N[C@@H](C)C(=O)N[C@@H](CC(C)C)C(=O)N[C@@H](CCCCN)C(=O)N[C@@H](Cc1ccccc1)C(=O)N[C@@H](CC(C)C)C(=O)N[C@@H](CC(C)C)C(=O)N[C@H](C(=O)N1CCC[C@H]1C(=O)N[C@H](C(N)=O)C(C)C)[C@@H](C)O (Ac-LALKFLLTPV-NH2) | 3.4 µM |
